Results taken from PubChem BioAssay AID1845194 (Molecular Pharmacology Branch, DTP, NCI, 2023).

Tested on: 287954-098-R-J1 tumor spheroid viability
Test: Anticancer human tumor 287954-098-R-J1 patient-derived Ewing sarcoma cell line growth inhibition
Conditions: spheroids with HUVEC and MSC; for IC50: curve of first compound; for viability, T/C: stronger effect = lower value
Method in brief: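 Complex tumor spheroids combined malignant cells with endothelial cells and mesenchymal stem cells. DNA-damaging drugs and DNA repair inhibitors were tested alone and in combination, at half-log dilutions down from clinical Cmax (top 10 microM if Cmax unknown), 0.25% DMSO final.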

[1] = second compound 0.003 µM, first compound 0.0316 µM
[2] = second compound 0.003 µM, first compound 0.1 µM
[3] = second compound 0.003 µM, first compound 0.316 µM
[4] = second compound 0.003 µM, first compound 1 µM
[5] = second compound 0.003 µM, first compound 3.16 µM
[6] = second compound 0.003 µM, first compound 10 µM
[7] = second compound 0.00949 µM, first compound 0.0316 µM
[8] = second compound 0.00949 µM, first compound 0.1 µM
[9] = second compound 0.00949 µM, first compound 0.316 µM
[10] = second compound 0.00949 µM, first compound 1 µM
[11] = second compound 0.00949 µM, first compound 3.16 µM
[12] = second compound 0.00949 µM, first compound 10 µM
[13] = second compound 0.03 µM, first compound 0.0316 µM
[14] = second compound 0.03 µM, first compound 0.1 µM
[15] = second compound 0.03 µM, first compound 0.316 µM
[16] = second compound 0.03 µM, first compound 1 µM
[17] = second compound 0.03 µM, first compound 3.16 µM
[18] = second compound 0.03 µM, first compound 10 µM
[19] = second compound 0.0949 µM, first compound 0.0316 µM
[20] = second compound 0.0949 µM, first compound 0.1 µM
[21] = second compound 0.0949 µM, first compound 0.316 µM
[22] = second compound 0.0949 µM, first compound 1 µM
[23] = second compound 0.0949 µM, first compound 3.16 µM
[24] = second compound 0.0949 µM, first compound 10 µM
[25] = second compound 0.3 µM, first compound 0.0316 µM
[26] = second compound 0.3 µM, first compound 0.1 µM
[27] = second compound 0.3 µM, first compound 0.316 µM
[28] = second compound 0.3 µM, first compound 1 µM
[29] = second compound 0.3 µM, first compound 3.16 µM
[30] = second compound 0.3 µM, first compound 10 µM
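Note: spheroids exposed to compound for 7 days before viability readout.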
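Throughout, for viability, T/C: luminescent signal taken as surrogate of viable cell content; 100% = DMSO vehicle control viability and lower means growth inhibition.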

Row | SMILES | IC50 (second compound 0.003 µM) | IC50 (second compound 0.00949 µM) | IC50 (second compound 0.03 µM) | IC50 (second compound 0.0949 µM) | IC50 (second compound 0.3 µM) | viability, T/C [1] | viability, T/C [2] | viability, T/C [3] | viability, T/C [4] | viability, T/C [5] | viability, T/C [6] | viability, T/C [7] | viability, T/C [8] | viability, T/C [9] | viability, T/C [10] | viability, T/C [11] | viability, T/C [12] | viability, T/C [13] | viability, T/C [14] | viability, T/C [15] | other results
1 | CC(C)n1c(=O)n(C)c2cnc3cc(F)c(-c4ccc(OCCCN5CCCCC5)nc4)cc3c21 + CC[C@@]1(O)C(=O)OCc2c1cc1n(c2=O)Cc2cc3c(CN(C)C)c(O)ccc3nc2-1 | < 31.6 nM | < 31.6 nM | < 31.6 nM | < 31.6 nM | < 31.6 nM | 24.4% | 25.2% | 14.1% | 18% | 18.6% | 0.6% | 1.98% | 1.84% | 1.79% | 1.85% | 1.45% | 0.25% | 1.57% | 1.36% | 1.48% | viability, T/C [16]: 1.56%; viability, T/C [17]: 1.35%; viability, T/C [18]: 0.27%; viability, T/C [19]: 1.39%; viability, T/C [20]: 1.29%; viability, T/C [21]: 1.62%; viability, T/C [22]: 1.24%; viability, T/C [23]: 1.02%; viability, T/C [24]: 0.43%; viability, T/C [25]: 1.39%; viability, T/C [26]: 1.68%; viability, T/C [27]: 1.34%; viability, T/C [28]: 1.48%; viability, T/C [29]: 1.35%; viability, T/C [30]: 0.58%
2 | CC1COCCN1c1cc(-c2ccnn2C)c2ccnc(-c3ccn[nH]3)c2n1 (stereo not given) + CC[C@@]1(O)C(=O)OCc2c1cc1n(c2=O)Cc2cc3c(CN(C)C)c(O)ccc3nc2-1 | 45.5 nM | < 31.6 nM | < 31.6 nM | < 31.6 nM | < 31.6 nM | 66.4% | 14.3% | 7.1% | 2.65% | 1.92% | 2.07% | 3.62% | 1.68% | 2.2% | 1.74% | 1.4% | 2% | 1.73% | 1.36% | 1.38% | viability, T/C [16]: 0.71%; viability, T/C [17]: 1.17%; viability, T/C [18]: 1.55%; viability, T/C [19]: 1.53%; viability, T/C [20]: 1.31%; viability, T/C [21]: 1.28%; viability, T/C [22]: 0.9%; viability, T/C [23]: 0.77%; viability, T/C [24]: 1.08%; viability, T/C [25]: 1.62%; viability, T/C [26]: 1.43%; viability, T/C [27]: 1.23%; viability, T/C [28]: 0.85%; viability, T/C [29]: 0.69%; viability, T/C [30]: 0.67%
3 | COc1cc(C)[nH]c(=O)c1CN1CCc2c(Cl)cc(C(OC)C3COC3)c(Cl)c2C1=O (stereo not given) + CC[C@@]1(O)C(=O)OCc2c1cc1n(c2=O)Cc2cc3c(CN(C)C)c(O)ccc3nc2-1 | > 10000 nM | > 10000 nM | 117 nM | < 31.6 nM | < 31.6 nM | 94.9% | 94.7% | 99.9% | 95.5% | 88% | 93% | 108% | 99.6% | 92.3% | 89.1% | 95.1% | 92.8% | 63.6% | 36.6% | 50.9% | viability, T/C [16]: 36.4%; viability, T/C [17]: 28%; viability, T/C [18]: 2.56%; viability, T/C [19]: 1.65%; viability, T/C [20]: 1.55%; viability, T/C [21]: 1.34%; viability, T/C [22]: 1.37%; viability, T/C [23]: 1.24%; viability, T/C [24]: 1.63%; viability, T/C [25]: 1.38%; viability, T/C [26]: 1.47%; viability, T/C [27]: 1.35%; viability, T/C [28]: 1.69%; viability, T/C [29]: 1.33%; viability, T/C [30]: 1.57%
4 | COc1ccc([C@@H](O)c2cc(-c3ncnc4cc(N5CCOCC5)ccc34)c(F)cc2Cl)nn1 + CC[C@@]1(O)C(=O)OCc2c1cc1n(c2=O)Cc2cc3c(CN(C)C)c(O)ccc3nc2-1 | > 10000 nM | > 10000 nM | < 31.6 nM | < 31.6 nM | < 31.6 nM | 91.5% | 97.4% | 95.8% | 105% | 96.5% | 83.9% | 94.3% | 94.1% | 100% | 92.1% | 93.2% | 54.9% | 21.7% | 24.2% | 11.3% | viability, T/C [16]: 5.39%; viability, T/C [17]: 0.97%; viability, T/C [18]: 5.74%; viability, T/C [19]: 1.23%; viability, T/C [20]: 1.03%; viability, T/C [21]: 1.21%; viability, T/C [22]: 0.99%; viability, T/C [23]: 0.52%; viability, T/C [24]: 0.59%; viability, T/C [25]: 1.41%; viability, T/C [26]: 1.01%; viability, T/C [27]: 1.15%; viability, T/C [28]: 0.88%; viability, T/C [29]: 0.44%; viability, T/C [30]: 0.41%
